BindingDB's records for doi:10.1021/jm960510x (University of Camerino, 1996)

Target: Alpha-1B adrenergic receptor (Mesocricetus auratus) (UniProt P18841)
Test: Compound was tested for binding affinity against cloned Alpha-1B adrenergic receptor from hamster smooth muscle using radioligand ([3H]prazosin) binding assay

Chain of Alpha-1B adrenergic receptor (Mesocricetus auratus) (P18841 whole entry, looked up): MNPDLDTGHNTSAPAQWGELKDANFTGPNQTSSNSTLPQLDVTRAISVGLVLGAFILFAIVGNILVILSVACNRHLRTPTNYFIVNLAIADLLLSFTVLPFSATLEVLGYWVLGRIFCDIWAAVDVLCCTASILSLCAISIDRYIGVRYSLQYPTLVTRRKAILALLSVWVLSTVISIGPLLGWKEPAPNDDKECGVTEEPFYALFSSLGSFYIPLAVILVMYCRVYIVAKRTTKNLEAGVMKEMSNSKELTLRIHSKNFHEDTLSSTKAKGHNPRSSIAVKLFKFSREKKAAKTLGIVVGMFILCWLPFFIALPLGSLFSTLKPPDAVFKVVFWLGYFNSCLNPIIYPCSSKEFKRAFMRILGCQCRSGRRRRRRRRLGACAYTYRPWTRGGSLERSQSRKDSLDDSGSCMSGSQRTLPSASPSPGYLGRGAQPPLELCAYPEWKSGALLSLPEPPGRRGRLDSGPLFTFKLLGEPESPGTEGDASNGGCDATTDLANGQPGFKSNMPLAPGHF

| SMILES | Ki [nM] |
| --- | --- |
| COc1cc2nc(N3CCN(C(=O)c4ccco4)[C@@H]4CCCC[C@@H]43)nc(N)c2cc1OC | 0.692 |
| COc1cc2nc(N3CCN(C(=O)c4ccco4)[C@H]4CCCC[C@H]43)nc(N)c2cc1OC [CYCLAZOSIN] | 0.309 |
| COc1cc2nc(N3CCN(C(=O)c4ccco4)C4CCCCC43)nc(N)c2cc1OC (stereo not drawn) [(Cyclazosin)[4-(4-Amino-6,7-dimethoxy-quinazolin-2-yl)-octahydro-quinoxalin-1-yl]-furan-2-yl-methanone] | 0.589 |
